Reference: patent US5641762A, “Bone targeted inhibitors of carbonic anhydrase” (Research Corporation Technologies, Inc., priority 1994, dated 1997)
In brackets after ≈: the same amount, converted by molar mass. Read-outs that look alike come from different tables or passages of the source. Blank lines part the entries; values can stand above or below the molecule they belong to.

Assays:
[1] = Binding to hydroxyapatite; details: for bound to hydroxyapatite: 10^-5 M, 30 minute incubation (FIG. 1)
Description: A--Binding to Hydroxyapatite
For these studies, 10^-5 M aqueous solutions of the various test agents were added to a slurry of hydroxyapatite (HA), the principle mineral constituent of bone. After a 30 minute incubation, HA was separated by centrifugation and treated with 1.0M phosphate buffer (pH=7) or 2.0M phosphate buffer (pH=7). Percentage of total drug bound and eluted was determined using UV-visible spectrophotometry.
1. Binding to hydroxyapatite.

[2] = test system: carbonic anhydrase; assay: Carbonic anhydrase inhibition (modified micromethod, CO2/bicarbonate colour change time); format: biochemical; details: for Potency as CA inhibitor: relative to acetazolamide = 100, Table 5; for carbonic anhydrase inhibition: before hydrolysis, final assay concentration 5×10^-6 M (FIG. 2)
Description: B--Carbonic Anhydrase Inhibition
A modification of the micromethod of Maven, J. Pharmacol. Exp. Ther. 130: 26-29 (1960) was used to assess carbonic anhydrase activity and inhibition. In essence, a bicarbonate solution was incubated at 0° C. in a vessel which was constantly bubbled with CO2. A pH indicator (phensulfophthalein) was included. The dependent variable was the amount of time required to achieve color change (addition of bicarbonate is defined as time zero). Addition of carbonic anhydase decreased reaction time. Further addition of enzyme inhibitors extended reaction time back to control values.
All are tested before and after being subjected to hydrolyric conditions with the final assay concentration being 5×10^-6 M. For these experiments, the dependent variable was the amount of time required for acidification of a CO2 /bicarbonate buffer system to a defined endpoint. […] Finally, test drugs were added to enzyme-containing reaction mixtures, and any increase in reaction time was indicative of enzyme inhibition.

[3] = physchem; details: for chromatographic logP: reverse phase hplc lc-18-db, pH 2
Description: Chromatographic characterization was accomplished using hydroxyapetite (HA) chromatography, silica gel thin layer chromatography and high performance reverse phase liquid chromatography (HPLC) with the following characteristics:
Column: LC-18-DB (Supelco)/25 cm/5 um particles.
Mobile phase: 9% tetrahydrofuran/9% CH3 CN/1% CH3 OH/81% 5 mM sodium phosphate, pH=2
Detection: UV-visible absorbance 210-500 nm (photo-diode array scanning)
This mode of analysis served simultaneously as a qualitative analytic procedure (full UV-vis spectrum) as well as providing a quantitative estimate of drug concentration.
Chromatographic data was obtained using the HPLC system described.

[4] = test system: rat calvaria (PTH-stimulated calcium release); assay: In vitro bone organ culture, PTH-stimulated calcium release from calvaria; format: cell-based; details: for PTH-stimulated calcium release from calvaria: 10^-5 M (FIG. 3)
Description: Essentially, fetal or neonatal rat calvaria were excised and cultured in serum supplemented BGJb medium (GIBCO) containing HEPES buffer (hydroxyethylpiperazine-ethanesulfonate), penicillin and streptomycin. Bone samples were individually incubated in sterile multi-well plates at 37° C./100% relative humidity/95:5 air:CO2. If appropriate, bone may be radiolabeled by injection of mothers with ^45 CACl2 or pups with tritiated proline.
1. In vitro inhibition of bone resorption. Rat calvaria were cultured as described. Some cultures include the addition of parathyroid hormone (PTH) in the presence and absence of test compounds (10^-5 M).

[5] = Solubility pH 7.6; format: physicochemical
[6] = pH 7.6
[7] = test system: PTH-induced bone resorption; assay: In vivo Induced Secondary Hyperparathyroid Rat (ISHR); details: for Blood Calcium: i.p. 24 h before nephrectomy, bled 4 h post nephrectomy, control 12.2 ± 0.4, prenephrectomy 10.1 ± 0.3, ** P ≤ 0.05, preliminary; for effect on developing hypercalcemia: given 24 hours prior to nephrectomy
Description: 1. The Induced Secondary Hyperparathyroid Rat
In order to test the biological activity of these substances, test compounds were injected intraperitoneally into 100 gram female rats. Twenty-four hours later the animals were subjected to bilateral nephrectomy. Animals were bled 4 hours post nephrectomy. […] The resulting decline in the concentration of ionized calcium in the blood served as a stimulus for the release of PTH. In animals with functional parathyroid glands, a secondary hyperparathyroidism developed with an ensuing hypercalcemia due to PTH-induced bone resorption. Agents which inhibited bone resorption attenuate this hypercalcemic response.

[8] = kidney intact animals; cited from earlier work
[9] = cited from earlier work; for acidosis: systemic / metabolic acidosis
[10] = test system: PTH-induced resorption of bone in culture; details: cited from earlier work
[11] = test system: PTH-induced bone resorption; details: literature (Waite et al. 1970); cited from earlier work
[12] = test system: response to PTH (plasma calcium); details: ISHR without parathyroids; cited from earlier work
[13] = test system: PTH-stimulated calcium release from bone; assay: In vivo classical endocrine ablation/replacement model (PTH given to parathyroidectomized rats); design: species or system rat; details: PTH group
Description: Parathyroid hormone was administered to parathyroidectomized rats who received no food for 12 hours before PTH injection, to minimize gut calcium absorption. In an attempt to attenuate the developing increase in plasma calcium, drug was administered 24 hours prior to PTH injection.
Parathyroid hormone was administered to parathyroidectomized rats who had received no food for 12 hours before PTH injection, to minimize gut calcium absorption.

Molecule: CCOC(=O)CCCCC(=O)NS(=O)(=O)c1nnc(NC(C)=O)s1 [AAOEt, acetazolamide-adipate-ethyl ester]
bound to hydroxyapatite [1]: 3% | carbonic anhydrase inhibition after hydrolytic conditions ([2]; following incubation under hydrolytic conditions, 5×10^-6 M (FIG. 2)): inhibited carbonic anhydrase activity | lipophilicity relative to parent compounds ([3]; HPLC): more lipophilic than is its parent, acetazolamide | chromatographic logP [3]: 0.238

Ki ([2]; read-out: KI as carbonic anhydrase inhibitor): 120 nM
Molecule: NS(=O)(=O)c1nnc(NC(=O)CCC(=O)NCCCCCC(O)(P(=O)(O)O)P(=O)(O)O)s1 [PAA]
water solubility relative to parent thiadiazolesulfonamide [3]: more water soluble than the parent thiadiazolesulfonamide

Molecule: CN(C)C1C(=O)C(C(N)=O)=C(O)C2(O)C(=O)C3=C(O)c4c(OC(CO)COC(=O)Oc5ccc6nc(S(N)(=O)=O)sc6c5)cccc4C(C)(O)C3CC12 (stereo not shown) [TAE-2]
PTH-stimulated bone resorption / calcium release ([4]; calvaria in culture (FIGS. 8-10)): attenuates PTH stimulated calcium release from calvaria in culture (FIG. 9) in a concentration dependent fashion

% Bound to Hydroxyapatite [1]: 0% | Potency as CA inhibitor [2]: 20% | chromatographic logP [3]: -0.409 | solubility [5]: 28.4 mM (≈ 5120 µg/mL) | ether:buffer partition coefficient [6]: 0.15
Molecule: Nc1nnc(S(N)(=O)=O)s1 [WP-061786, 2-amino-1,3,4-thiadiazole-5-sulfonamide]

Molecule: CC(=O)Nc1nnc(S(N)(=O)=O)s1 [acetazolamide]
bound to hydroxyapatite [1]: 19% | carbonic anhydrase inhibition [2]: inhibits carbonic anhydrase activity | Potency as CA inhibitor [2]: 100% | PTH-stimulated calcium release from calvaria [4]: inhibited | Blood Calcium ([7]; 0.2 mol/kg as printed): 12.6 ± 0.2 mg/dL | effect on developing hypercalcemia [7]: not effective | solubility [5]: 6.7 mM (≈ 1490 µg/mL) | half-life [8]: approximately 50 minutes | change in plasma calcium concentration ([9]; normal animals): no change in plasma calcium concentration is observed | acidosis [9]: causes a systemic acidosis | acidosis ([9]; listed as Acetazolamide): produces a metabolic acidosis | inhibition of PTH-induced resorption ([10]; tissue culture (Minkin and Jennings)): inhibition of PTH-induced resorption | inhibition of the increase in total plasma calcium in ISHR [11]: completely inhibits this response | inhibition of response to administered PTH [12]: abolish it

Molecule: CN(C)C1C(=O)C(C(N)=O)=C(O)C2(O)C(=O)C3=C(O)c4c(O)cccc4C(C)(O)C3CC12 (stereo not shown) [tetracycline]
bound to hydroxyapatite [1]: 90% | % Bound to Hydroxyapatite ([1]; Table 6): 85% | binding to / elution from hydroxyapatite ([1]; result in words, sodium phosphate buffer, pH 7): eluted with 1.0M sodium phosphate | carbonic anhydrase inhibition [2]: without effect | PTH-stimulated calcium release from calvaria [4]: without effect | effect on developing hypercalcemia [7]: does not appear to be effective | Blood Calcium [7]: 11.8 ± 0.4 mg/dL | inhibition of PTH in vitro ([10]; at high concentrations): typically inhibits PTH in vitro

B1: PTH: parathyroid hormone (protein, UniProt P01270 32-115, looked up)
Parathyroid hormone: SVSEIQLMHNLGKHLNSMERVEWLRKKLQDVHNFVALGAPLAPRDAGSQRPRKKEDNVLVESHEKSLGEADKADVNVLTKAKSQ
modifications: Parathyroid hormone
net release of calcium from cultured bone ([4]; treatment with PTH): significant stimulation | Blood Calcium, Before PTH [13]: 5.2 ± 0.3 mg/dL | Blood Calcium, 6 hours post-treatment ([13]; control 5.5 ± 0.2, ** p < 0.05 vs control): 7.2 ± 0.2 mg/dL
